# Laboratory results: patent US7947830B2, “Substituted propenyl piperazine derivatives as novel inhibitors of histone deacetylase” (Janssen Pharmaceutica N.V., priority 2004, dated 2011)
# Read-outs that look alike come from different tables or passages of the source.
# Assays:
# [1] = tested on: A2780 ovarian carcinoma cells; experiment: Antiproliferative activity on A2780 cells (MTT); type: cell-based, human; conditions: Homo sapiens, A2780, 96 h, four days of incubation, read-out: Cellular activity pIC50 C.2. (converted)
# Description: Cellular activity of the compounds of formula (I) was determined on A2780 tumour cells using a […] assay for cell toxicity or survival (Mosmann Tim, Journal of Immunological Methods 65: 55-63, 1983)(see example C.2).
# All compounds tested were dissolved in DMSO and further dilutions were made in culture medium. Final DMSO concentrations never exceeded 0.1% (v/v) in cell proliferation assays. Controls contained A2780 cells and DMSO without compound and blanks contained DMSO but no cells. MTT was dissolved at 5 mg/ml in PBS. A glycine buffer comprised of 0.1 M glycine and 0.1 M NaCl buffered to pH 10.5 with NaOH (1 N) was prepared (all reagents were from Merck).
# The human A2780 ovarian carcinoma cells (a kind gift from Dr. T. C. Hamilton [Fox Chase Cancer Centre, Pennsylvania, USA]) were cultured in RPMI 1640 medium supplemented with 2 mM L-glutamine, 50 μg/ml gentamicin and 10% fetal calf serum.
# Cells were routinely kept as monolayer cultures at 37° C. in a humidified 5% CO2 atmosphere. Cells were passaged once a week using a trypsin/EDTA solution at a split ratio of 1:40. All media and supplements were obtained from Life Technologies. Cells were free of mycoplasma contamination as determined using the Gen-Probe Mycoplasma Tissue Culture kit (supplier: BioMérieux).
# Cells were seeded in NUNC™ 96-well culture plates (Supplier: Life Technologies) and allowed to adhere to the plastic overnight. Densities used for plating were 1500 cells per well in a total volume of 200 μl medium. After cell adhesion to the plates, medium was changed and drugs and/or solvents were added to a final volume of 200 μl. Following four days of incubation, medium was replaced by 200 μl fresh medium and cell density and viability was assessed using an MTT-based assay. To each well, 25 μl […] solution was added and the cells were further incubated for 2 hours at 37° C. The medium was then carefully aspirated and the blue MTT-formazan product was solubilized by addition of 25 μl glycine buffer followed by 100 μl of DMSO. […] Within an experiment, the results for each experimental condition are the mean of 3 replicate wells. For initial screening purposes, compounds were tested at a single fixed concentration of 10^−6 M. For active compounds, the experiments were repeated to establish full concentration-response curves. For each experiment, controls (containing no drug) and a blank incubation (containing no cells or drugs) were run in parallel. The blank value was subtracted from all control and sample values. For each sample, the mean value for cell growth (in absorbance units) was expressed as a percentage of the mean value for cell growth of the control. […] Herein the effects of test compounds are expressed as pIC50 (the negative log value of the IC50-value)(see Table F-3).
# [2] = biological target: histone deacetylase (HeLa nuclear extracts); experiment: In vitro assay for inhibition of histone deacetylase (HDAC Fluorescent Activity Assay, Fluor de Lys); type: biochemical; conditions: Fluor de Lys substrate
# From the text: The in vitro assay for inhibition of histone deacetylase (see example C.1) measures the inhibition of HDAC enzymatic activity obtained with the compounds of formula (I).
# The HDAC Fluorescent Activity Assay/Drug Discovery Kit of Biomol (cat.No: AK-500-0001) was used. The HDAC Fluorescent Activity Assay is based on the Fluor de Lys (Fluorogenic […] deAcetylase Lysyl) substrate and developer combination. The Fluor de Lys substrate, comprises an acetylated lysine side chain. Deacetylation of the substrate sensitizes the substrate so that, in the second step, treatment with the Fluor de Lys developer produces a fluorophore.
# After 30 min, 1 volume of the developer was added. […] For each experiment, controls (containing HeLa nuclear extract and buffer), a blank incubation (containing buffer but no HeLa nuclear extract) and samples (containing compound dissolved in DMSO and further diluted in buffer and HeLa nuclear extract) were run in parallel. […] All sample were tested 4 times. In each test the blank value was substracted from both the control and the sample values. The control sample represented 100% of substrate deactylation. For each sample the fluorescence was expressed as a percentage of the mean value of the controls. […] Herein the effects of test compounds are expressed as pIC50 (the negative log value of the IC50-value) (see Table F-3).
# [3] = Kinetic solubility in aqueous media (nephelometer, C.3.a); type: physicochemical; conditions: aqueous buffer, kinetic from dmso stock; score; phosphate citrate buffer pH 7.4, turbidity
# Description: The solubility of a compound measures the ability of a compound to stay in solution. In a first method the ability of a compound to stay in aqueous solution upon dilution (see example C.3.a) is measured. DMSO-stock solutions are diluted with a single aqueous buffer solvent in 3 consecutive steps. For every dilution turbidity is measured with a nephelometer.
# In the first dilution step, 10 μl of a concentrated stock-solution of the active compound, solubilized in DMSO (5 mM), was added to 100 μl phosphate citrate buffer pH 7.4 and mixed. In the second dilution step, an aliquot (20 μl) of the first dilution step was further dispensed in 100 μl phosphate citrate buffer pH 7.4 and mixed. Finally, in the third dilution step, a sample (20 μl) of the second dilution step was further diluted in 100 μl phosphate citrate buffer pH 7.4 and mixed. All dilutions were performed in 96-well plates. Immediately after the last dilution step the turbidity of the three consecutive dilution steps were measured with a nephelometer. Dilution was done in triplicate for each compound to exclude occasional errors. Based on the turbidity measurements a ranking is performed into 3 classes. Compounds with high solubility obtained a score of 3 and for this compounds the first dilution is clear. Compounds with medium solubility obtained a score of 2. For these compounds the first dilution is unclear and the second dilution is clear.
# [4] = tested on: p21 promoter reporter A2780 tumour in nude mice; experiment: p21 promoter induction in vivo method, tumour fluorescence (C.6.c); conditions: oral administration, daily during 6 days, 20-40 mpk
# Description: Another method tests the capacity of compounds to induce p21 as the consequence of HDAC inhibition at the cellular level. […] The reporter gene is a fluorescent protein and the expression of the reporter gene is measured as the amount of fluorescent light emitted (see example C.6.b.). The last method is an in vivo method wherein mice are used for screening the pharmaceutical activity of a compound. The above described stably transformed tumour cells can be administered to mice in an amount sufficient to effect production of a tumour. After the tumour cells had sufficient time to form a tumour, a potentially active compound can be administered to the animals and the effect of said compound on the tumour cells is evaluated by measuring the expression of the reporter gene. Incubation with pharmaceutical active compounds will result in an increase of reporter gene expression compared to the control levels (see example C.6.c.)
# A selected clone was injected subcutaneous (10^7 cells/200 μl) into the flank of nude mice and a calliper measurable tumour was obtained after 12 days. […] Tumours were evaluated for fluorescence by the in-house developed Automated Whole Body Imaging System (Fluorescent stereomicroscope type Olympus® SZX12 equipped with a GFP filter and coupled to a CCD camera type JAI® CV-M90 controlled by a software package based on the IMAQ Vision Software from National Instruments®). […]
# [5] = not given; remark: listed apart in the source
# [6] = Metabolic stability with rat hepatocytes cell culture (C.5.b); type: in vitro ADME; conditions: 5 μM
# From the text: Metabolism of drugs means that a lipid-soluble xenobiotic or endobiotic compound is enzymatically transformed into (a) polar, water-soluble, and excretable metabolite(s). The major organ for drug metabolism is the liver. […] However, some metabolites may have enhanced activity or toxic effects. Thus drug metabolism may include both “detoxication” and “toxication” processes. One of the major enzyme systems that determine the organism's capability of dealing with drugs and chemicals is represented by the cytochrome P450 monooxygenases, which are NADPH dependent enzymes. Metabolic stability of compounds can be determined in vitro with the use of subcellular human tissue (see example C.5.a.). Here metabolic stability of the compounds is expressed as % of drug metabolised after 15 minutes incubation of these compounds with microsomes. Quantitation of the compounds was determined by LC-MS analysis. Metabolic stability of compounds can also be determined by calculating the half live of compounds in rat hepatocyte cells (see example C.5.b.). […]
# Samples were prepared for LC-MS by addition of two volumes of DMSO. […] Of the resulting supernatant 50 μl was analysed by LC-MS. […]
# Total injection volume of samples was 50 μL. […] The mass spectrometer was operated in positive ion mode in SIM adjusted to the mass of M+H with a scan width of 1 Da for quantification purposes. […]
IC50 [1] [nM],Enzymatic activity pIC50 C.1. [2],solubility [3] [µM],in vitro half-live [6] [min],SMILES,also measured
12.6,8.2,> 455,–,O=C(NO)c1cnc(N2CCN(C(/C=C/c3ccccc3)CO)CC2)nc1 (stereo not drawn) [Compound 1],melting point: 187 °C; tumour fluorescence ranked relative to R306465 [4]: better than R306465
–,–,–,–,CCCO [propanol],"% metabolism ([5]; after 15 min incubation with active microsomes, compound 5 μM): 25%"
–,–,–,8,"O=C(NO)c1cnc(N2CCN(S(=O)(=O)c3ccc4ccccc4c3)CC2)nc1 [Compound R306465, reference compound]",–
–,–,–,–,COc1cc(N)c(Cl)cc1C(=O)NC1CCN(CCCOc2ccc(F)cc2)CC1OC (stereo not drawn) [Cisapride],"% metabolism ([5]; human, 15 min, 5 μM): 45%"
31.6,8.2,> 455,23,O=C(NO)c1cnc(N2CCN(C(/C=C/c3ccc(Cl)cc3)CO)CC2)nc1 (stereo not drawn) [Compound 4],–
